According to publication PMC8330100, “Similarities and differences in the localization, trafficking, and function of P-glycoprotein in MDR1-EGFP-transduced rat versus human brain capillary endothelial cell lines” (Fluids and Barriers of the CNS, 2021):

What was measured:
Pgp in rBCECs = conditions: cited from earlier work
hCMEC/D3-MDR1-EGFP cells [1] = assay: Count of Pgp-EGFP-positive intracellular vesicles before and 24 h after doxorubicin, hCMEC/D3-MDR1-EGFP; assay type: cell-based, human; conditions: doxorubicin 10 µM, 30 min, 24 h after treatment
Procedure: (§1) To evaluate the number of green-fluorescent (Pgp-EGFP positive) intracellular vesicles in RBE4- and hCMEC/D3-MDR1-EGFP cells before and 24 h after treatment with doxorubicin (10 µM, 30 min, 37 °C), imaging of the cells was performed using an inverted fluorescence microscope Lumascope 620 (Etaluma Carlsbach, USA) placed in the cell culture incubator. After treatment with doxorubicin, cells were maintained in a doxorubicin-free cell culture medium until imaging. Before imaging, cellular debris was removed by washing the cells twice with sterile PBS followed by the addition of fresh doxorubicin-free culture medium.

hCMEC/D3-MDR1-EGFP cells [2] = assay: Doxorubicin toxicity with or without Pgp inhibition by tariquidar, hCMEC/D3-MDR1-EGFP; assay type: cell-based, human; conditions: doxorubicin 10 µM, 30 min
Procedure: (§2) For analysis of the effects of doxorubicin on Pgp-inhibited cells, confluent monolayers of RBE4- and hCMEC/D3-MDR1-EGFP cells grown on coverslips were preincubated with or without the Pgp inhibitor tariquidar (0.5 µM, 1 h, 37 °C) in Opti-MEM before the addition of doxorubicin (10 µM, 30 min, 37 °C). After substrate incubation, cells were covered with cell culture medium for 24 h. Cells were then washed once with PBS, fixed with paraformaldehyde (4%, 30 min), and permeabilized with Triton X-100 (1%, 5 min). Finally, cells were washed and coverslips were mounted in Prolong Gold antifade (Carl Roth GmbH, Karlsruhe, Germany) containing 4’,6-diamidino-2-phenylindole (DAPI) to stain nuclei. Analysis was performed with a Zeiss Axio Observer fluorescence microscope including an ApoTome.2 and using a 40× or 63× objective.

RBE4-MDR1-EGFP cells [3] = assay: Count of Pgp-EGFP-positive intracellular vesicles before and 24 h after doxorubicin, RBE4-MDR1-EGFP; assay type: cell-based, rat; conditions: doxorubicin 10 µM, 30 min, 24 h after treatment
Procedure: as §1

RBE4-MDR1-EGFP cells [4] = assay: Doxorubicin toxicity with or without Pgp inhibition by tariquidar, RBE4-MDR1-EGFP; assay type: cell-based, rat; conditions: doxorubicin 10 µM, 30 min
Procedure: as §2

[5] = biological target: Pgp in RBE4-MDR1-EGFP monolayers (Homo sapiens, UniProt P08183); conditions: [3H]dLop 5 nM
Procedure: (§3) For these experiments, a concentration equilibrium transport assay (CETA) was used, which is more sensitive to identify Pgp substrates than conventional bidirectional (concentration gradient) transport assays. In the CETA, the drug is added to both (apical and basolateral) sides of the monolayer, so that the initial drug concentration is the same in both compartments, thereby minimizing the effect of passive diffusion across the cell monolayer.
(§4) In the present study, the CETA assay was used to determine the flux of the radiolabeled Pgp substrate [N-methyl-^3H]N-desmethyl loperamide ([^3H]dLop) across hCMEC/D3-MDR1-EGFP and RBE4-MDR1-EGFP monolayers. […] Cells were grown on permeable ThinCert® filter supports (12-well, 0.4 µm pore size, PET, Greiner Bio-One). […] Transport studies were performed in triplicates seven days after seeding. […] After 30, 60, 120, 180, and 240 min, samples of 50 µL and 70 µL were retrieved from the apical and basolateral chambers, respectively. Quantification of substrate transport was conducted by liquid scintillation counting using a 1450 Microbeta Trilux liquid scintillation counter (Perkin Elmer Wallac). […] Baseline dLop levels were corrected by the amount of dLop absorbed by the filter system as measured in blank inserts without cells. […]

[6] = biological target: Pgp in hCMEC/D3-MDR1-EGFP monolayers (Homo sapiens, UniProt P08183); conditions: [3H]dLop 5 nM
Procedure: as §3, §4

[7] = biological target: Pgp in LLC-MDR1 monolayers (Homo sapiens, UniProt P08183); conditions: [3H]dLop 5 nM

For `COc1ccc(C[C@H](N)C(=O)N[C@H]2[C@@H](O)[C@H](n3cnc4c(N(C)C)ncnc43)O[C@@H]2CO)cc1` [puromycin], the “effect of drug exposure on Rho123 accumulation” value (Pgp in rBCECs) is listed as “significantly reduced”.

In the case of `COc1cccc2c1C(=O)c1c(O)c3c(c(O)c1C2=O)C[C@@](O)(C(=O)CO)C[C@@H]3O[C@H]1C[C@H](N)[C@H](O)[C@H](C)O1` [doxorubicin], the “increase of average number of Pgp-EGFP-positive vesicles per cell” value (hCMEC/D3-MDR1-EGFP cells [1]) is reported as 170%, the “toxicity 24 h after exposure, Pgp inhibited” value (hCMEC/D3-MDR1-EGFP cells [2]; after tariquidar 0.5 µM) is reported as “cell death” and the “toxicity 24 h after exposure, absence of Pgp inhibition” value (hCMEC/D3-MDR1-EGFP cells [2]; no tariquidar) is reported as “without any signs of toxicity”. The “increase of average number of Pgp-EGFP-positive vesicles per cell” value (RBE4-MDR1-EGFP cells [3]) was 220%, the “toxicity 24 h after exposure, Pgp inhibited” value (RBE4-MDR1-EGFP cells [4]; after tariquidar 0.5 µM) was “cell death” and the “toxicity 24 h after exposure, absence of Pgp inhibition” value (RBE4-MDR1-EGFP cells [4]; no tariquidar) was “without any signs of toxicity”.

In the case of `[3H]CNC(=O)C(CCN1CCC(O)(c2ccc(Cl)cc2)CC1)(c1ccccc1)c1ccccc1` [dLop, [N-methyl-^3H]N-desmethyl loperamide], the “asymmetrical (basolateral to apical) transport in CETA” value (shortened to “asymmetrical”) [5] is reported as “not observed”, the “asymmetrical” value [6] is reported as “not observed” and the “asymmetrical” value [7] is reported as “such transport was obtained”.
